What was measured:
[1] = molecular target: T1, Glucagon-like peptide 2 receptor (Homo sapiens, UniProt O95838); test: Agonist activity at human GLP2R expressed in HEK293 cells after 5 hrs by luciferase reporter gene assay; type: cell-based
T1 sequence (O95838 whole entry): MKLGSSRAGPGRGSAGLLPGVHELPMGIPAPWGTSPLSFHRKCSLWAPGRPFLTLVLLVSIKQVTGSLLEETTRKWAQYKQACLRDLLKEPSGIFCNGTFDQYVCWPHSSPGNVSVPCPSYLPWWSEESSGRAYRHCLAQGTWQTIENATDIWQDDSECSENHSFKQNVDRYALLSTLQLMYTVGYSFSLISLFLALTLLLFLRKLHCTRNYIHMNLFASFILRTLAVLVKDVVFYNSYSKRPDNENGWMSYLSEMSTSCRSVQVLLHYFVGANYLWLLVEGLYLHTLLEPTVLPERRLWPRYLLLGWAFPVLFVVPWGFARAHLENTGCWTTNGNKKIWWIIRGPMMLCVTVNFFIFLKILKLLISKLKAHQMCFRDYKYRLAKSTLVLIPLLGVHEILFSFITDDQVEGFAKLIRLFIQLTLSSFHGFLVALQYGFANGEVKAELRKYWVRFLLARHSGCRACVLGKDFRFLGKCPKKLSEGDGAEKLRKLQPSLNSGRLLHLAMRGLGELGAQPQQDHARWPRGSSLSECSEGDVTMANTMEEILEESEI

[2] = molecular target: Glucagon-like peptide 1 receptor (Homo sapiens, UniProt P43220); test: Agonist activity at human GLP1R expressed in HEK293 cells after 5 hrs by luciferase reporter gene assay; type: cell-based
HEK293 = test: Selectivity ratio of EC50 for human GLP1R expressed in HEK293 cells to EC50 for human GLP2R expressed in HEK293; type: cell-based
[3] = Systemic clearance in Sprague-Dawley rat at 0.2 mg/kg, iv through cassette dosing measured up to 300 mins by LC/MS/MS analysis; type: ADME, organism-based; details: in vivo

Sequence of Glucagon-like peptide 1 receptor (P43220 whole entry): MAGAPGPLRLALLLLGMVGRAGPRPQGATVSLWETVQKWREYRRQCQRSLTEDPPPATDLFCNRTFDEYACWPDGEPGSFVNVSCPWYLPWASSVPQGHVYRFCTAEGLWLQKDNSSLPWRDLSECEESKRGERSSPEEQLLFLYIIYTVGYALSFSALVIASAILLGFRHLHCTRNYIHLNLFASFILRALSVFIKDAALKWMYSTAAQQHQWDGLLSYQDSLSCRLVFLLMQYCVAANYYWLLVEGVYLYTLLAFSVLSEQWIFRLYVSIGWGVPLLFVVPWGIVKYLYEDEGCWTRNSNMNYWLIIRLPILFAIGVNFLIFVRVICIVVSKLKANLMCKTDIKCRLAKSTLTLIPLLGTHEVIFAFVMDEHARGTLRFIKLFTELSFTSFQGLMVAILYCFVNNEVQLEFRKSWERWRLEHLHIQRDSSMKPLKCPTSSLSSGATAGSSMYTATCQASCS

Row | Structure (SMILES) | EC50 [1] [nM] | EC50 [2] [nM] | clearance [3] [mL/min/kg] | Ratio EC50 (HEK293)
1 | CCCCC(NC(=O)[C@H](CCC(=O)O)NC(=O)[C@H](CC(=O)O)NC(=O)[C@H](CO)NC(=O)[C@H](Cc1ccccc1)NC(=O)[C@H](CO)NC(=O)CNC(=O)[C@H](CC(=O)O)NC(=O)CNC(=O)[C@@H](N)Cc1cnc[nH]1)C(=O)N[C@H](Cc1ccccc1)C(=O)N[C@H](C(=O)N[C@H](C(=O)N[C@@H](CC(C)C)C(=O)N[C@@H](CC(=O)O)C(=O)N[C@@H](CC(C)C)C(=O)N[C@@H](CC(C)C)C(=O)N[C@@H](C)C(=O)N[C@@H](C)C(=O)N[C@@H](CCCNC(=N)N)C(=O)N[C@@H](CC(=O)O)C(=O)N[C@@H](Cc1ccccc1)C(=O)N[C@H](C(=O)N[C@@H](CC(N)=O)C(=O)N[C@@H](Cc1c[nH]c2ccccc12)C(=O)N[C@@H](CC(C)C)C(=O)N[C@H](C(=O)N[C@@H](CCC(N)=O)C(=O)N[C@H](C(=O)N[C@@H](CCCCN)C(=O)N[C@H](C(=O)N[C@H](C(=O)N[C@@H](CC(=O)O)C(=O)NCc1ccccc1)[C@@H](C)O)[C@@H](C)CC)[C@@H](C)O)[C@@H](C)CC)[C@@H](C)CC)[C@@H](C)CC)[C@@H](C)O (some centres not stated) | 0.1 | > 1000 | 0.1 | > 10000
2 | CCCCC(NC(=O)[C@H](CCC(=O)O)NC(=O)[C@H](CC(=O)O)NC(=O)[C@H](CO)NC(=O)[C@H](Cc1ccccc1)NC(=O)[C@H](CO)NC(=O)CNC(=O)[C@H](CC(=O)O)NC(=O)CNC(=O)[C@@H](N)Cc1cnc[nH]1)C(=O)N[C@H](Cc1ccccc1)C(=O)N[C@H](C(=O)N[C@H](C(=O)N[C@@H](CC(C)C)C(=O)N[C@@H](CC(=O)O)C(=O)N[C@@H](Cc1ccccc1)C(=O)N[C@@H](CC(C)C)C(=O)N[C@@H](C)C(=O)N[C@@H](C)C(=O)N[C@@H](CCCNC(=N)N)C(=O)N[C@@H](CC(=O)O)C(=O)N[C@@H](Cc1ccccc1)C(=O)N[C@H](C(=O)N[C@@H](CC(N)=O)C(=O)N[C@@H](Cc1c[nH]c2ccccc12)C(=O)N[C@@H](CC(C)C)C(=O)N[C@H](C(=O)N[C@@H](CCC(N)=O)C(=O)N[C@H](C(=O)N[C@@H](CCCCN)C(N)=O)[C@@H](C)O)[C@@H](C)CC)[C@@H](C)CC)[C@@H](C)CC)[C@@H](C)O (some centres not stated) | 0.09 | > 1000 | 0.3 | > 11000
3 | CCCCC(NC(=O)[C@H](CCC(=O)O)NC(=O)[C@H](CC(=O)O)NC(=O)[C@H](CO)NC(=O)[C@H](Cc1ccccc1)NC(=O)[C@H](CO)NC(=O)CNC(=O)[C@H](CC(=O)O)NC(=O)CNC(=O)[C@@H](N)Cc1cnc[nH]1)C(=O)N[C@H](Cc1ccccc1)C(=O)N[C@H](C(=O)N[C@H](C(=O)N[C@@H](CC(C)C)C(=O)N[C@@H](CC(=O)O)C(=O)N[C@@H](CC(C)C)C(=O)N[C@@H](CC(C)C)C(=O)N[C@@H](C)C(=O)N[C@@H](C)C(=O)N[C@@H](CCCNC(=N)N)C(=O)N[C@@H](CC(=O)O)C(=O)N[C@@H](Cc1ccccc1)C(=O)N[C@H](C(=O)N[C@@H](CC(N)=O)C(=O)N[C@@H](Cc1c[nH]c2ccccc12)C(=O)N[C@@H](CC(C)C)C(=O)N[C@H](C(=O)N[C@@H](CCC(N)=O)C(=O)N[C@H](C(=O)N[C@@H](CCCCN)C(=O)N[C@H](C(=O)N[C@H](C(=O)N[C@@H](CC(=O)O)C(=O)NCCCOCCOCCOCCCNC(=O)COCC(N)=O)[C@@H](C)O)[C@@H](C)CC)[C@@H](C)O)[C@@H](C)CC)[C@@H](C)CC)[C@@H](C)CC)[C@@H](C)O (some centres not stated) | 0.03 | > 1000 | 0.28 | > 33000
4 | CCCCC(NC(=O)[C@H](CCC(=O)O)NC(=O)[C@H](CC(=O)O)NC(=O)[C@H](CO)NC(=O)[C@H](Cc1ccccc1)NC(=O)[C@H](CO)NC(=O)CNC(=O)[C@H](CC(=O)O)NC(=O)CNC(=O)[C@@H](N)Cc1cnc[nH]1)C(=O)N[C@H](Cc1ccccc1)C(=O)N[C@H](C(=O)N[C@H](C(=O)N[C@@H](CC(C)C)C(=O)N[C@@H](CC(=O)O)C(=O)N[C@@H](CC(C)C)C(=O)N[C@@H](CC(C)C)C(=O)N[C@@H](C)C(=O)N[C@@H](C)C(=O)N[C@@H](CCCNC(=N)N)C(=O)N[C@@H](CC(=O)O)C(=O)N[C@@H](Cc1ccccc1)C(=O)N[C@H](C(=O)N[C@@H](CC(N)=O)C(=O)N[C@@H](Cc1c[nH]c2ccccc12)C(=O)N[C@@H](CC(C)C)C(=O)N[C@H](C(=O)N[C@@H](CCC(N)=O)C(=O)N[C@H](C(=O)N[C@@H](CCCCN)C(=O)N[C@H](C(=O)N[C@H](C(=O)N[C@@H](CC(=O)O)C(=O)NCc1ccncc1)[C@@H](C)O)[C@@H](C)CC)[C@@H](C)O)[C@@H](C)CC)[C@@H](C)CC)[C@@H](C)CC)[C@@H](C)O (some centres not stated) | 0.04 | > 1000 | 0.27 | > 25000

Now from value to molecule, other results behind:

Row | EC50 [1] [nM] | EC50 [2] [nM] | clearance [3] [mL/min/kg] | Structure (SMILES) | Ratio EC50 (HEK293)
5 | 0.51 | > 1000 | 0.11 | CCCCC(NC(=O)[C@@H](CCC(=O)O)NC(=O)[C@@H](CC(=O)O)NC(=O)[C@@H](CO)NC(=O)[C@@H](Cc1ccccc1)NC(=O)[C@@H](CO)NC(=O)CNC(=O)[C@@H](CC(=O)O)NC(=O)CNC(=O)[C@@H](N)Cc1cnc[nH]1)C(=O)N[C@@H](Cc1cccc(Cl)c1)C(=O)N[C@@H](C(=O)N[C@@H](C(=O)N[C@H](CC(C)C)C(=O)N[C@H](CC(=O)O)C(=O)NC(Cc1ccc2ccccc2c1)C(=O)N[C@@H](CC(C)C)C(=O)N[C@@H](C)C(=O)N[C@@H](C)C(=O)N[C@@H](CCCNC(=N)N)C(=O)N[C@@H](CC(=O)O)C(=O)N[C@@H](Cc1ccccc1)C(=O)N[C@H](C(=O)N[C@@H](CC(N)=O)C(=O)N[C@H](Cc1c[nH]c2ccccc12)C(=O)N[C@H](CC(C)C)C(=O)N[C@@H](C(=O)N[C@H](CCC(N)=O)C(=O)N[C@@H](C(=O)N[C@H](CCCCN)C(=O)N[C@@H](C(=O)N[C@@H](C(=O)N[C@@H](CC(=O)O)C(N)=O)[C@H](C)O)[C@@H](C)CC)[C@H](C)O)[C@@H](C)CC)[C@H](C)CC)[C@@H](C)CC)[C@H](C)O (some centres not stated) | > 1900
6 | 0.13 | > 1000 | 0.12 | CCCCC(NC(=O)[C@H](CCC(=O)O)NC(=O)[C@H](CC(=O)O)NC(=O)[C@H](CO)NC(=O)[C@H](Cc1ccccc1)NC(=O)[C@H](CO)NC(=O)CNC(=O)[C@H](CC(=O)O)NC(=O)CNC(=O)[C@@H](N)Cc1cnc[nH]1)C(=O)N[C@H](Cc1cccc(Cl)c1)C(=O)N[C@H](C(=O)N[C@H](C(=O)N[C@@H](CC(C)C)C(=O)N[C@@H](CC(=O)O)C(=O)N[C@@H](Cc1ccccc1)C(=O)N[C@@H](CC(C)C)C(=O)N[C@@H](C)C(=O)N[C@@H](C)C(=O)N[C@@H](CCCNC(=N)N)C(=O)N[C@@H](CC(=O)O)C(=O)N[C@@H](Cc1ccccc1)C(=O)N[C@H](C(=O)N[C@@H](CC(N)=O)C(=O)N[C@@H](Cc1c[nH]c2ccccc12)C(=O)N[C@@H](CC(C)C)C(=O)N[C@H](C(=O)N[C@@H](CCC(N)=O)C(=O)N[C@H](C(=O)N[C@@H](CCCCN)C(=O)N[C@H](C(=O)N[C@H](C(=O)N[C@@H](CC(=O)O)C(N)=O)[C@@H](C)O)[C@@H](C)CC)[C@@H](C)O)[C@@H](C)CC)[C@@H](C)CC)[C@@H](C)CC)[C@@H](C)O (some centres not stated) | > 7600
7 | 0.07 | > 1000 | 0.15 | CCCCC(NC(=O)[C@H](CCC(=O)O)NC(=O)[C@H](CC(=O)O)NC(=O)[C@H](CO)NC(=O)[C@H](Cc1ccccc1)NC(=O)[C@H](CO)NC(=O)CNC(=O)[C@H](CC(=O)O)NC(=O)CNC(=O)[C@@H](N)Cc1cnc[nH]1)C(=O)N[C@H](Cc1cccs1)C(=O)N[C@H](C(=O)N[C@H](C(=O)N[C@@H](CC(C)C)C(=O)N[C@@H](CC(=O)O)C(=O)N[C@@H](Cc1ccccc1)C(=O)N[C@@H](CC(C)C)C(=O)N[C@@H](C)C(=O)N[C@@H](C)C(=O)N[C@@H](CCCNC(=N)N)C(=O)N[C@@H](CC(=O)O)C(=O)N[C@@H](Cc1ccccc1)C(=O)N[C@H](C(=O)N[C@@H](CC(N)=O)C(=O)N[C@@H](Cc1c[nH]c2ccccc12)C(=O)N[C@@H](CC(C)C)C(=O)N[C@H](C(=O)N[C@@H](CCC(N)=O)C(=O)N[C@H](C(=O)N[C@@H](CCCCN)C(=O)N[C@H](C(=O)N[C@H](C(=O)N[C@@H](CC(=O)O)C(N)=O)[C@@H](C)O)[C@@H](C)CC)[C@@H](C)O)[C@@H](C)CC)[C@@H](C)CC)[C@@H](C)CC)[C@@H](C)O (some centres not stated) | > 14000
8 | 0.06 | > 1000 | 0.24 | CCCCC(NC(=O)[C@H](CCC(=O)O)NC(=O)[C@H](CC(=O)O)NC(=O)[C@H](CO)NC(=O)[C@H](Cc1ccccc1)NC(=O)[C@H](CO)NC(=O)CNC(=O)[C@H](CC(=O)O)NC(=O)CNC(=O)[C@@H](N)Cc1cnc[nH]1)C(=O)N[C@H](Cc1ccccc1)C(=O)N[C@H](C(=O)N[C@H](C(=O)N[C@@H](CC(C)C)C(=O)N[C@@H](CC(=O)O)C(=O)N[C@@H](Cc1ccccc1)C(=O)N[C@@H](CC(C)C)C(=O)N[C@@H](C)C(=O)N[C@@H](C)C(=O)N[C@@H](CCCNC(=N)N)C(=O)N[C@@H](CC(=O)O)C(=O)N[C@@H](Cc1ccccc1)C(=O)N[C@H](C(=O)N[C@@H](CC(N)=O)C(=O)N[C@@H](Cc1c[nH]c2ccccc12)C(=O)N[C@@H](CC(C)C)C(=O)N[C@H](C(=O)N[C@@H](CCC(N)=O)C(=O)N[C@H](C(=O)N[C@@H](CCCCN)C(=O)N[C@H](C(=O)N[C@H](C(=O)N[C@@H](CC(=O)O)C(N)=O)[C@@H](C)O)[C@@H](C)CC)[C@@H](C)O)[C@@H](C)CC)[C@@H](C)CC)[C@@H](C)CC)[C@@H](C)O (some centres not stated) | > 16000

— ChEMBL document CHEMBL3822442, “Synthesis and Pharmacological Characterization of Novel Glucagon-like Peptide-2 (GLP-2) Analogues with Low Systemic Clearance” (J Med Chem, 2016)
